The values below come from patent publication US8822467B2 (Ligand Pharmaceuticals Inc., priority 2009, dated 2014).

Each structure is given as a SMILES string. A value given as a limit tells only on which side of the number the result lay.

The IC50 is the midpoint of a concentration-inhibition curve.

For the first assay, the target named is T1, human CRTH2 (Homo sapiens, UniProt Q9Y5Y4).
T1 construct: expressed in transfected cells
T1 sequence (Q9Y5Y4 1-395): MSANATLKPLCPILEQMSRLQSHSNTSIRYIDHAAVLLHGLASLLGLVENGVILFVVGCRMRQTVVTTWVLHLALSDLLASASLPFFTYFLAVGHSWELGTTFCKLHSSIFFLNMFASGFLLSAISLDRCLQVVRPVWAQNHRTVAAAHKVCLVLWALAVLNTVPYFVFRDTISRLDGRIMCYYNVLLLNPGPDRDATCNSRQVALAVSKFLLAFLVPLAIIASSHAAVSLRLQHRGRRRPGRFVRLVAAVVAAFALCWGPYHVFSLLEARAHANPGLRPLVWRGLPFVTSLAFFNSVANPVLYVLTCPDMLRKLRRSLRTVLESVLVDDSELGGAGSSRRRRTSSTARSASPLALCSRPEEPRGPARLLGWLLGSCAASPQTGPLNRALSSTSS
Kind of assay: [35S]GTPγS binding assay (SPA) on membranes from CHO-K1 cells stably expressing human CRTH2, stimulated with 60 nM DHK-PGD2. Format: biochemical. The note with it: membranes of CHO-K1 cells expressing human CRTH2; 60 nM DHK-PGD2; Table 1; read-out: CRTH2 hGTPγS IC50. The procedure, abridged:
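Read-out is scintillation proximity: bound [35S]GTPγS (500 pM, with 10 μM GDP) was counted 4 h after centrifuging a 2 h ambient-temperature incubation. Reactions held 4 μg human CRTH2 CHO-K1 membrane protein, 60 nM DHK-PGD2 agonist and test compounds at increasing concentrations. Buffer: 20 mM HEPES pH 7.4, 10 mM MgCl2, 300 mM NaCl, 0.2% BSA, 1% DMSO.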
For the compound `O=C(O)COc1ccc(CNS(=O)(=O)c2ccc(F)cc2)cc1-c1cccc(C(F)(F)F)c1` [Example 110], the IC50 was 169 nM.

The assay is the same for the next values; noted with them: potency class symbols; Table 2; read-out: CRTH2 hGTPγS IC50.
For the compound `CN(Cc1ccc(OCC(=O)O)c(-c2ccc3ccn(C)c3c2)c1)S(=O)(=O)c1ccc(F)cc1` [Example 101, 2-(1-methyl-indol-6-yl)-4-((4-fluoro-N-methylphenylsulfonamido)methyl)phenoxyacetic acid], the IC50 was less than 100 nM.

As to `Cc1cc(S(=O)(=O)N(C)Cc2ccc(OCC(=O)O)c(-c3cccc(C#N)c3)c2)ccc1F` [Example 66, 2-(3-cyanophenyl)-4-((3-methyl-4-fluoro-N-methylphenylsulfonamido)methyl)phenoxyacetic acid], the IC50 is less than 100 nM.

Take `CN(Cc1cc(-c2cc(F)cc(C#N)c2)c(OCC(=O)O)cc1F)S(=O)(=O)c1ccc(F)c(Cl)c1` [Example 209, 2-(3-cyano-5-fluoro-phenyl)-4-((3-chloro-4-fluoro-N-methylphenylsulfonamido)methyl)-5-fluorophenoxyacetic acid]: the IC50 is less than 100 nM.

`CS(=O)(=O)c1cccc(-c2cc(CNS(=O)(=O)c3ccc(F)cc3)ccc2OCC(=O)O)c1` [Example 81, 2-(3-methylsulfonylphenyl)-4-((4-fluorophenylsulfonamido)methyl)phenoxyacetic acid]: the IC50 was less than 100 nM.

Turning to `CNC(=O)c1cccc(-c2cc(CN(C)S(=O)(=O)c3ccc(F)cc3)ccc2OCC(=O)O)c1` [Example 135, 2-(3-N-methylaminocarbonylphenyl)-4-((4-fluoro-N-methylphenylsulfonamido)methyl)phenoxyacetic acid], the IC50 lay in the range of 100 to 1000 nM.

Regarding `CN(Cc1ccc(OCC(=O)O)c(-c2cccc(S(C)(=O)=O)c2)c1)S(=O)(=O)c1cccc(F)c1` [Example 57, 2-(3-methylsulfonylphenyl)-4-((3-fluoro-N-methylphenylsulfonamido)methyl)phenoxyacetic acid], the IC50 was less than 100 nM.

For `CN(Cc1ccc(OCC(=O)O)c(-c2cccc(S(C)(=O)=O)c2)c1)S(=O)(=O)c1ccc(C#N)cc1` [Example 86, 2-(3-methylsulfonylphenyl)-4-((4-cyano-N-methylphenylsulfonamido)methyl)phenoxyacetic acid], the concentration for half-maximal inhibition (IC50) is less than 100 nM.

Consider `CN(Cc1cc(-c2cccc(C#N)c2)c(OCC(=O)O)cc1F)S(=O)(=O)c1cccc(F)c1` [Example 87, 2-(3-cyanophenyl)-4-((3-fluoro-N-methylphenylsulfonamido)methyl)-5-fluorophenoxyacetic acid], for which the IC50 is less than 100 nM.

On to `CN(Cc1ccc(OCC(=O)O)c(-c2cccc(C(F)(F)F)c2)c1)S(=O)(=O)c1cccc2cccnc12` [Example 143, 2-(3-trifluoromethylphenyl)-4-((N-methylquinoline-8-sulfonamido)methyl)phenoxyacetic acid], for which the IC50 lay within 100 to 1000 nM.

Turning to `CN(Cc1ccc(OCC(=O)O)c(-c2cccc(C(F)(F)F)c2)c1)S(=O)(=O)c1ccccn1` [Example 173, 2-(3-trifluoromethylphenyl)-4-((N-methylpyridine-2-sulfonamido)methyl)phenoxyacetic acid], the IC50 lay within 1000 to 10000 nM.

For the compound `CN(Cc1ccc(OCC(=O)O)c(-c2cccc(C(F)(F)F)c2)c1)S(=O)(=O)c1cccnc1` [Example 149, 2-(3-trifluoromethylphenyl)-4-((N-methylpyridine-3-sulfonamido)methyl)phenoxyacetic acid], the IC50 is 100 to 1000 nM.

Regarding `CCS(=O)(=O)c1cccc(-c2cc(CN(C)S(=O)(=O)c3ccc(F)cc3)ccc2OCC(=O)O)c1` [Example 83, 2-(3-ethylsulfonylphenyl)-4-((4-fluoro-N-methylphenylsulfonamido)methyl)phenoxyacetic acid], the IC50 was less than 100 nM.

In the case of `C[C@H](Oc1ccc(CN(C)S(=O)(=O)c2ccc(F)cc2)cc1-c1cccc(C(F)(F)F)c1)C(=O)O` [Example 36, (S)-2-(2-(3-trifluoromethylphenyl)-4-((4-fluoro-N-methylphenylsulfonamido)methyl)phenoxy)propanoic acid], the IC50 fell in the range of 100 to 1000 nM.

Take `CN(Cc1ccc(OCC(=O)O)c(-c2cccc(C(F)(F)F)c2)c1)S(=O)(=O)c1cc(F)cc(F)c1` [Example 137, 2-(3-trifluoromethylphenyl)-4-((3,5-difluoro-N-methylphenylsulfonamido)methyl)phenoxyacetic acid]: the IC50 was 100 to 1000 nM.

`CN(Cc1ccc(OCC(=O)O)c(-c2cccc(C(F)(F)F)c2)c1)S(=O)(=O)c1ccccc1Cl` [Example 170, 2-(3-trifluoromethylphenyl)-4-((2-chloro-N-methylphenylsulfonamido)methyl)phenoxyacetic acid]: the IC50 is 1000 to 10000 nM.

Take `Cc1noc(C)c1S(=O)(=O)N(C)Cc1ccc(OCC(=O)O)c(-c2cccc(C(F)(F)F)c2)c1` [Example 160, 2-(3-trifluoromethylphenyl)-4-((N,3,5-trimethylisoxazole-4-sulfonamido)methyl)phenoxyacetic acid]: the IC50 lay in the range of 1000 to 10000 nM.

In the case of `CN(Cc1cc(F)c(OCC(=O)O)c(-c2cccc(C#N)c2)c1)S(=O)(=O)c1ccc(F)cc1` [Example 136, 2-(3-cyanophenyl)-4-((4-fluoro-N-methylphenylsulfonamido)methyl)-6-fluorophenoxyacetic acid], the IC50 was 100 to 1000 nM.

As for `CN(Cc1ccc(OCC(=O)O)c(-c2cc(C(F)(F)F)ccc2Cl)c1)S(=O)(=O)c1ccc(F)cc1` [Example 115, 2-(2-chloro-5-trifluoromethylphenyl)-4-((4-fluoro-N-methylphenylsulfonamido)methyl)phenoxyacetic acid], the IC50 is 100 to 1000 nM.

As to `CN(Cc1ccc(OCC(=O)O)c(-c2ccc(F)c(F)c2)c1)S(=O)(=O)c1ccc(F)cc1` [Example 144, 2-(3,4-difluorophenyl)-4-((4-fluoro-N-methylphenylsulfonamido)methyl)phenoxyacetic acid], the IC50 was in the range of 100 to 1000 nM.

As for `CN(Cc1ccc(OCC(=O)O)c(-c2cccc(C#N)c2)c1)S(=O)(=O)c1ccc(F)cc1` [Example 5, 2-(2-(3-cyanophenyl)-4-((4-fluoro-N-methylphenylsulfonamido)methyl)phenoxy)acetic acid], the IC50 is less than 100 nM.

As to `COc1ccc(S(=O)(=O)N(C)Cc2ccc(OCC(=O)O)c(-c3cccc(S(C)(=O)=O)c3)c2)cc1` [Example 69, 2-(3-methylsulfonylphenyl)-4-((4-methoxy-N-methylphenylsulfonamido)methyl)phenoxyacetic acid], the IC50 was less than 100 nM.

`CN(Cc1ccc(OCC(=O)O)c(-c2cccc(C(F)(F)F)c2)c1)S(=O)(=O)c1cccc2ccccc12` [Example 145, 2-(3-trifluoromethylphenyl)-4-((N-methylnaphthalene-1-sulfonamido)methyl)phenoxyacetic acid]: the IC50 was 100 to 1000 nM.

Take `CN(Cc1ccc(OCC(=O)O)c(-c2cccc(C(F)(F)F)c2)c1)S(=O)(=O)c1ccc(F)c(Cl)c1` [Example 74, 2-(3-trifluoromethylphenyl)-4-((3-chloro-4-fluoro-N-methylphenylsulfonamido)methyl)phenoxyacetic acid]: the IC50 was less than 100 nM.

For `Cc1ccc(-c2cc(CN(C)S(=O)(=O)c3ccc(F)cc3)ccc2OCC(=O)O)cc1S(C)(=O)=O` [Example 84, 2-(3-methylsulfonyl-4-methyl-phenyl)-4-((4-fluoro-N-methylphenylsulfonamido)methyl)phenoxyacetic acid], the IC50 was less than 100 nM.

For the compound `CN(C)S(=O)(=O)c1cccc(-c2cc(CN(C)S(=O)(=O)c3ccc(F)cc3)ccc2OCC(=O)O)c1` [Example 85, 2-(3-N,N-dimethylsulfamoylphenyl)-4-((4-fluoro-N-methylphenylsulfonamido)methyl)phenoxyacetic acid], the IC50 was less than 100 nM.

For the compound `CCN(Cc1ccc(OCC(=O)O)c(-c2cccc(C(F)(F)F)c2)c1)S(=O)(=O)c1ccc(F)c(F)c1` [Example 113, 2-(3-trifluoromethylphenyl)-4-((3,4-difluoro-N-ethylphenylsulfonamido)methyl)phenoxyacetic acid], the IC50 is 100 to 1000 nM.

Take `CC(c1ccc(OCC(=O)O)c(-c2cccc(C(F)(F)F)c2)c1)N(C)S(=O)(=O)c1ccc(F)cc1` (centres unmarked) [Example 22, 2-(2-(3-trifluoromethylphenyl)-4-(1-(4-fluoro-N-methylphenylsulfonamido)ethyl)phenoxy)acetic acid]: the IC50 is 100 to 1000 nM.

Regarding `CN(Cc1ccc(OCC(=O)O)c(-c2cncc(C#N)c2)c1)S(=O)(=O)c1ccc(F)cc1` [Example 108, 2-(3-cyano-5-pyridinyl)-4-((4-fluoro-N-methylphenylsulfonamido)methyl)phenoxyacetic acid], the IC50 lay within 100 to 1000 nM.

As for `COc1ccc(S(=O)(=O)N(C)Cc2ccc(OCC(=O)O)c(-c3cc(F)cc(C#N)c3)c2)cc1F` [Example 41, 2-(3-cyano-5-fluorophenyl)-4-((3-fluoro-4-methoxy-N-methylphenylsulfonamido)methyl)phenoxyacetic acid], the IC50 is less than 100 nM.

As to `O=C(O)COc1ccc(CNS(=O)(=O)c2ccc(F)cc2)cc1-c1cccc(C(F)(F)F)c1` [Example 110], the IC50 lay within 100 to 1000 nM.

For the compound `CN(Cc1ccc(OCC(=O)O)c(-c2cccc(S(C)(=O)=O)c2)c1)S(=O)(=O)c1ccc(F)cc1` [Example 60, 2-(3-methylsulfonylphenyl)-4-((4-fluoro-N-methylphenylsulfonamido)methyl)phenoxyacetic acid], the IC50 was less than 100 nM.
